Holding throughout (type): in vivo, rat
Assay [1] has as its system Wistar Charles River rats. Kind of assay: Euglycemic hyperinsulinemic clamp, high fat diet induced insulin resistance (Example 12). Conditions: HF diet supplemented with TTA, 21 days, 90 min clamp (FIG. 4). As for the experimental part:
After 21 days on their respective diets (see above), the rats were anaesthetised by injection of xylazine hydrochloride (Rometar SPOFA, Prague, Czech Republic; 10 mg/ml) and ketamine hydrochloride (Narkamon SPOFA, Prague, Czech republic; 75 mg/ml), and fitted with chronic carotid artery and jugular vein cannulas as described by Koopmans et al. (Koopmans, S. J., et al., Biochim Biophys Acta, 1115, […] 1992.). The cannulated rats were allowed to recover for two days after surgery before the clamping studies which were carried out according to Kraegen et al. (Kraegen, E. W., et al., Am J Physiol, 248, E353-E362 1983.). Thus, on the third day after surgery, unrestrained conscious rats were given a continuous infusion of porcine insulin (Actrapid, Novo Nordisk, Denmark) at a dose of 6.4 mU per kg per min to achieve plasma insulin levels in the upper physiological range. The arterial blood glucose concentration was clamped at the basal fasting level, by variable infusion of a 30% w/v glucose solution (Leciva, Prague, Czech Republic). […]
Rats weighing 330±20 g were divided into 3 groups (n=9) and fed with three different diets: standard rat chow, high fat diet (HF) and HF supplemented with TTA. […] The glucose infusion rate (GIR) was determined from the period of the clamp where glycemia got stabilised, i.e. between 45-90 minutes after clamp commencement. […]

For assay [2], the system named is 4 month old obese Zucker (fa/fa) rats. Kind of assay: Blood insulin and glucose in 4 month old obese Zucker (fa/fa) rats (Example 13). Conditions: 4 month old Zucker (fa/fa) rats, chow with 0.15% TTA, 21 days (FIG. 6). The procedure:
(§1) Glucose (GLU, Boehringer Mannheim, Germany), free fatty acids (NEFA, C ACS-ACOD kit; Wako Chemicals, Dalton, USA) and b-hydroxybutyrate (310-A kit; Sigma Diagnostics Inc., St. Louis, USA) concentrations were measured using enzymatic methods. Insulin concentrations were determined with radioimmunoassay by (CIS bio International, Gif sur Yvette, France) using rat insulin as standard in the Zucker rats. In the Wistar Charles River rats, plasma glucose concentrations were measured with the aid of Beckman Glucose Analyzer (Fullerton, Calif., USA). Plasma insulin levels were measured using a RIA kit from Linco Research Inc. (St. Charles, Mo., USA). Phospholipids were measured by the enzymatic method of bioMérieux, Marcy-l {grave over ( )}Etoile, France, Triacylglycerol by the Technicon Method no. SA4-0324L90, USA and Cholesterol by the Technicon Method no. SA4-0305L90, USA.
The rats were given a standard chow diet, either with (n=5) or without (n=6) 0.15% TTA. Following 21 days of treatment, blood was collected and the levels of insulin and glucose measured. Data are means±S.D.

A further assay deals with obese Zucker fa/fa rats. Briefly: Lipid lowering effect in obese Zucker fa/fa rats (Example 3). Conditions: 300 mg/day/kg by gavage once daily for 10 days, control palmitic acid. As for the experimental part:
as §1
Male obese Zucker fa/fa rats, weighing 100 g at the start of the experiment, were housed in pairs in metal wire cages in a room maintained at 12 h light-dark cycles and a constant temperature of 20±3° C. The animals were acclimatised for at least one week under these conditions before the start of the experiment.
TTA (tetradecylthioacetic acid) prepared in accordance with procedure described previously, and palmitic acid (control), was suspended in 0.5% (w/v) carboxymethyl cellulose (CMC). Six animals were used in both groups. TTA (tetradecylthioacetic acid) and palmitic acid were administered at a dose of 300 mg/day/kg body weight, by gastric intubation (gavage) once daily for 10 days. The rats were fasted for 2 hours before termination of the experiment. Blood and organs were collected. Lipid concentrations in plasma were determined using an autoanalyzer, as described in the method section.

Turning to Tetradecylthioacetic acid [TTA], the “Glucose infusion rate (GIR) in euglycemic hyperinsulinemic clamp” value in assay [1] is recorded as “fully normal”. Besides, in assay [2], the Blood glucose concentration entry is “reduces” and the Blood insulin concentration result is “reduces”. Also, in the assay with obese Zucker fa/fa rats, the “Decreased lipid level in plasma (% of control) Cholesterol” value is on record as 73 % of control, the “Decreased lipid level in plasma (% of control) Phospholipids” value was 71 % of control and the “Decreased lipid level in plasma (% of control) Triglycerides” value is given as 72 % of control.

The values above are taken from patent US6365628B1 (Thia Medica AS, priority 1998, dated 2002).
